Values joined by “and” are separate entries in the source; they are usually repeats but may differ in a detail not shown here. Equal entries are not always repeated. Inconclusive results and toxic doses are left out. Rule for the calls: active = survival T/C of 150% or more; inactive = T/C below 125% in these data.
Tested on: P388 leukemia ip, CD2F1 mice, survival T/C
Assay: NCI In Vivo Anticancer Drug Screen. Data for tumor model P388 Leukemia (intraperitoneal) in CD2F1 (CDF1) mice
Settings: endpoint: median survival time, higher = longer survival
Method in brief: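 Mice carrying the transplanted tumor received test compound or vehicle. Survival was recorded in each group, and the value is the treated-group measurement divided by that of the vehicle-treated control group.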

[1] = dose: 50.0 mg/kg/injection, schedule: Q01DX009 (ip), vehicle: saline with Tween-80
[2] = dose: 100.0 mg/kg/injection, schedule: Q01DX009 (ip), vehicle: saline with Tween-80
[3] = dose: 200.0 mg/kg/injection, schedule: Q01DX009 (ip), vehicle: saline with Tween-80

Measured: T/C

O=NNc1nc2ncccc2cc1-c1ccccc1Cl
inactive: dose: 3.12 mg/kg/injection, schedule: Q01DX009 (ip), vehicle: water 110 % of control and 111 % of control and 124 % of control | dose: 6.25 mg/kg/injection, schedule: Q01DX009 (ip), vehicle: water 111 % of control | dose: 12.5 mg/kg/injection, schedule: Q01DX009 (ip), vehicle: water 108 % of control and 113 % of control | dose: 25.0 mg/kg/injection, schedule: Q01DX009 (ip), vehicle: water 94 % of control and 95 % of control

CCCCCCCCCCC[N+]1(CC)CCCCC1
inactive: dose: 0.78 mg/kg/injection, schedule: Q01DX009 (ip), vehicle: saline 112 % of control and 93 % of control | dose: 1.56 mg/kg/injection, schedule: Q01DX009 (ip), vehicle: saline 100 % of control and 102 % of control | dose: 3.12 mg/kg/injection, schedule: Q01DX009 (ip), vehicle: saline 112 % of control and 97 % of control | dose: 6.25 mg/kg/injection, schedule: Q01DX009 (ip), vehicle: saline 124 % of control

Cc1ccccc1C(=Nc1ccccc1)Oc1ccccc1[N+](=O)[O-]
inactive: dose: 100.0 mg/kg/injection, schedule: Q04DX003 (ip), vehicle: saline 100 % of control | dose: 200.0 mg/kg/injection, schedule: Q04DX003 (ip), vehicle: saline 100 % of control | dose: 400.0 mg/kg/injection, schedule: Q04DX003 (ip), vehicle: saline 100 % of control

CCCCCCCCCCCCOc1ccccc1
inactive: [1] 100 % of control | [2] 104 % of control | [3] 100 % of control

O=C1C=CC(=O)N1c1ccc(Br)cc1Cl
inactive: dose: 1.0 mg/kg/injection, schedule: Q01DX009 (ip), vehicle: saline 104 % of control | dose: 1.8 mg/kg/injection, schedule: Q04DX003 (ip), vehicle: saline 113 % of control | dose: 2.0 mg/kg/injection, schedule: Q01DX009 (ip), vehicle: saline 109 % of control | dose: 2.6 mg/kg/injection, schedule: Q04DX003 (ip), vehicle: saline 109 % of control | dose: 4.0 mg/kg/injection, schedule: Q01DX009 (ip), vehicle: saline 113 % of control | dose: 4.0 mg/kg/injection, schedule: Q04DX003 (ip), vehicle: saline 113 % of control | dose: 6.0 mg/kg/injection, schedule: Q04DX003 (ip), vehicle: saline 118 % of control

O=C(c1ccc([N+](=O)[O-])cc1)c1cc2ccccc2oc1=O
inactive: dose: 60.0 mg/kg/injection, schedule: Q01DX005 (ip), vehicle: saline with Tween-80 91 % of control | dose: 120.0 mg/kg/injection, schedule: Q01DX005 (ip), vehicle: saline with Tween-80 94 % of control | dose: 240.0 mg/kg/injection, schedule: Q01DX005 (ip), vehicle: saline with Tween-80 90 % of control

CCOC(=O)Nc1cc2c(c(N)n1)N=C(c1ccc(C(F)(F)F)cc1)CN2
inactive: dose: 2.5 mg/kg/injection, schedule: Q01DX009 (ip), vehicle: saline with Tween-80 109 % of control | dose: 5.0 mg/kg/injection, schedule: Q01DX009 (ip), vehicle: saline with Tween-80 111 % of control | dose: 7.5 mg/kg/injection, schedule: Q04DX003 (ip), vehicle: saline with Tween-80 101 % of control | dose: 10.0 mg/kg/injection, schedule: Q01DX009 (ip), vehicle: saline with Tween-80 111 % of control | dose: 12.5 mg/kg/injection, schedule: Q01DX009 (ip), vehicle: saline with Tween-80 86 % of control | dose: 15.0 mg/kg/injection, schedule: Q04DX003 (ip), vehicle: saline with Tween-80 104 % of control | dose: 22.5 mg/kg/injection, schedule: Q01DX001 (ip), vehicle: saline with Tween-80 101 % of control | dose: 25.0 mg/kg/injection, schedule: Q01DX009 (ip), vehicle: saline with Tween-80 111 % of control | dose: 30.0 mg/kg/injection, schedule: Q04DX003 (ip), vehicle: saline with Tween-80 101 % of control | dose: 45.0 mg/kg/injection, schedule: Q01DX001 (ip), vehicle: saline with Tween-80 94 % of control | [1] 117 % of control | dose: 90.0 mg/kg/injection, schedule: Q01DX001 (ip), vehicle: saline with Tween-80 101 % of control

Cc1ccn(C)c(=N)c1
inactive: [1] 118 % of control | [2] 100 % of control | [3] 104 % of control

O=C(OC1C2C=CC1C1C3CCC(c4ccccc43)C21)c1ccc([N+](=O)[O-])cc1[N+](=O)[O-] (configuration not stated)
inactive: dose: 100.0 mg/kg/injection, schedule: Q04DX002 (ip), vehicle: saline 103 % of control | dose: 200.0 mg/kg/injection, schedule: Q04DX002 (ip), vehicle: saline 99 % of control | dose: 400.0 mg/kg/injection, schedule: Q04DX002 (ip), vehicle: saline 100 % of control

— PubChem BioAssay AID330 (DTP/NCI, 2004)
